# Laboratory results as given in patent publication US20230115252A1, “METHODS FOR TREATING NEUROMUSCULAR JUNCTION-RELATED DISEASES” (NSERM (Institut National de la Sante et de la Recherche …, priority 2014, published 2023).
# Assays:
# MuSKΔCRD mice [1] = assay: Rail-grip test and grip strength in treated MuSKΔCRD mice; format: in vivo; details: compared to NaCl-treated MuSKΔCRD mice
# Experimental: Animals were allowed to grasp a metal rail suspended in midair and their latency to release the rail was recorded. Each mouse (N=6 for each genotype) was subjected to five trials with at least 10 min rest period between tests.
# The grip strength was measured using a grip force tensiometer (Bioseb) according to the TREAT-NMD guidelines. Forelimbs and hindlimbs traction strength were recorded according to the manufacter's instructions. Three measurements were performed per animal.
# (§1) E12 pregnant mice or P10 adult mice were intraperitoneally injected with LiCl (Sigma, 600 mM-10 μl/g body weight) or placebo NaCl solution (0,0009%-10 μl/g body weight). Daily injections were made from E12 to E18 or from P10 to P60. After embryos genotyping, E18.5 or P60 diaphragms of LiCl-treated MuSKΔCRD mice were analyzed and compared to WT or NaCl-treated MuSKΔCRD.
# [2] = system: MuSKΔCRD primary myotubes; assay: AChR clustering in MuSKΔCRD primary myotubes; format: cell-based, mice; details: 16 h
# Experimental: (§2) Muscle cells were isolated from P7-P10 hind limb Tibialis Anterior (TA) and Gastrocnemius muscles from MuSKΔCRD or WT mice. Briefly, muscle tissues were excised, separated from connective tissue, minced in dissecting medium (DMEM-F12 medium containing 2 mM glutamine, 2% penicillin/streptomycin (500 U), 2% Fungizone) and dissociated in dissecting medium containing 0.2% type I collagenase (Gibco) for 90 min at 37° C. in water bath. Cells were centrifugated, filtered and resuspended in proliferating medium (dissecting medium supplemented with 20% horse serum and 2% Ultroser G, Pall). After overnight pre-plating, cells were expanded in Matrigel (Corning) coated dishes for 3 to 5 days and differentiated in differentiating medium (dissecting medium supplemented with 2% horse serum) for 5 days. When indicated, myotubes were treated with recombinant Agrin (0.4 μg/ml, R&D system), Wnt11 (10 ng/ml, R&D system) or LiCl (2.5 mM, Sigma) for 16 h.
# All images were collected on a microscope (model BX61; Olympus) equipped with a Fast 1394 Digital CCD FireWire camera (model Retiga 2000R; Qimaging) and a 20× objective or on a confocal laser scanning microscope (Zeiss LSM-710) equipped with a 20× objective and 63× oil objective. Collected Z-stacks confocal images (5 to 20 stacks with 1 to 1.5 μm (20×) z-steps) and image capture were made using LSM Image Browser. The same laser power and parameter setting were applied to ensure fair comparison between WT and MuSKΔCRD muscles. […] For quantification of the AChR clusters number, volume and intensity, image stacks were quantified using the ImageJ (version 1.46m) plugin “3D object counter” (Bolte and Cordeliéres, 2006). […] At least 4 diaphragms or 50 isolated muscle fibers of each genotype were analyzed and quantified. To evaluate β-catenin translocation to subsynaptic nuclei in isolated muscle fibers, image stacks corresponding to nuclei were used for quantification using the ImageJ intensity plot profile measuring the intensity of β-catenin and Dapi fluorescence within the segmented line.
# [3] = system: Wnt/β-catenin signaling in MuSKΔCRD mice; assay: β-catenin translocation to subsynaptic nuclei in isolated TA muscle fibers of treated MuSKΔCRD mice; format: in vivo; details: P40 TA muscle fibers, compared to NaCl-treated MuSKΔCRD
# Experimental: (§3) Isolated muscle fibers were labeled with antibodies as for whole-mount immunostaining Incubation times were the following: 3 hours for blocking, overnight at 4° C. for incubation with primary or secondary antibodies.
# All images were collected on a microscope (model BX61; Olympus) equipped with a Fast 1394 Digital CCD FireWire camera (model Retiga 2000R; Qimaging) and a 20× objective or on a confocal laser scanning microscope (Zeiss LSM-710) equipped with a 20× objective and 63× oil objective. Collected Z-stacks confocal images (5 to 20 stacks with 1 to 1.5 μm (20×) z-steps) and image capture were made using LSM Image Browser. The same laser power and parameter setting were applied to ensure fair comparison between WT and MuSKΔCRD muscles. Multiple Tile Scanned images were taken to cover the size of the whole diaphragm. […] For quantification of the AChR clusters number, volume and intensity, image stacks were quantified using the ImageJ (version 1.46m) plugin “3D object counter” (Bolte and Cordeliéres, 2006). […] At least 4 diaphragms or 50 isolated muscle fibers of each genotype were analyzed and quantified. To evaluate β-catenin translocation to subsynaptic nuclei in isolated muscle fibers, image stacks corresponding to nuclei were used for quantification using the ImageJ intensity plot profile measuring the intensity of β-catenin and Dapi fluorescence within the segmented line. […]
# MuSKΔCRD embryos = assay: NMJ formation in E18.5 MuSKΔCRD embryos after intraperitoneal injections in pregnant mice (whole mount diaphragm); format: in vivo
# Experimental: Diaphragm muscles were dissected and fixed (4% paraformaldehyde in PBS) for 1 h at room temperature and further fixed (1% formaldehyde in PBS) overnight at 4° C. Muscles were washed three times for 15 minutes in PBS, incubated for 15 minutes with 100 mM glycine in PBS and rinsed in PBS. Muscles were permeabilized (0.5% Triton X-100 in PBS) for 1 h and blocked for 4 hours in blocking buffer (3% BSA, 5% goat serum and 0.5% Triton X-100 in PBS). Muscles were incubated overnight at 4° C. with rabbit polyclonal antibodies against neurofilament and synaptophysin in blocking solution. After three 1-hour washes in PBS, muscles were incubated overnight at 4° C. with Alexa-488 goat anti-rabbit IgG and Alexa-594-conjugated-α-bungarotoxin (α-BGT) in blocking solution. After three 1-hour washes in PBS, muscles were flat-mounted in Vectashield (Vector Labs) mounting medium.
# (§4) All images were collected on a microscope (model BX61; Olympus) equipped with a Fast 1394 Digital CCD FireWire camera (model Retiga 2000R; Qimaging) and a 20× objective or on a confocal laser scanning microscope (Zeiss LSM-710) equipped with a 20× objective and 63× oil objective. Collected Z-stacks confocal images (5 to 20 stacks with 1 to 1.5 μm (20×) z-steps) and image capture were made using LSM Image Browser. The same laser power and parameter setting were applied to ensure fair comparison between WT and MuSKΔCRD muscles. Multiple Tile Scanned images were taken to cover the size of the whole diaphragm. Confocal images presented are single-projected image derived from overlaying each set of stacks. For quantification of the AChR clusters number, volume and intensity, image stacks were quantified using the ImageJ (version 1.46m) plugin “3D object counter” (Bolte and Cordeliéres, 2006). The threshold intensity was set by visual inspection of AChR clusters, being the same between WT and MuSKΔCRD images. The endplate band width was defined by the distance between the two farthest AChR clusters from the main nerve trunk. Around 100 measurements regularly spaced and covering the entire diaphragm were taken. At least 4 diaphragms or 50 isolated muscle fibers of each genotype were analyzed and quantified. To evaluate β-catenin translocation to subsynaptic nuclei in isolated muscle fibers, image stacks corresponding to nuclei were used for quantification using the ImageJ intensity plot profile measuring the intensity of β-catenin and Dapi fluorescence within the segmented line.
# as §1
# MuSKΔCRD mice [4] = assay: NMJ morphology in postnatal MuSKΔCRD mice injected P10 to P60 (isolated TA muscle fibers); format: in vivo
# Experimental: as §3, §4
# E12 pregnant mice or P10 adult mice were intraperitoneally injected with LiCl (Sigma, 600 mM-10 μl/g body weight) or placebo NaCl solution (0,0009%-10 μl/g body weight). Daily injections were made from E12 to E18 or from P10 to P60. […]
# [5] = system: Wnt/β-catenin signaling in MuSKΔCRD primary myotubes; assay: β-catenin translocation to the nucleus in primary myotubes; format: cell-based, mice
# Experimental: as §2
# WT primary myotubes = assay: AChR clustering in WT primary myotubes; format: cell-based, mice; details: Wnt11 10 ng/ml, 16 h
# Experimental: as §2, with “When indicated, myotubes were treated with recombinant Agrin (0.4 μg/ml, R&D system), Wnt11 (10 ng/ml, R&D system) or LiCl (2.5 mM, Sigma) for 16 h.” left out
# All images were collected on a microscope (model BX61; Olympus) equipped with a Fast 1394 Digital CCD FireWire camera (model Retiga 2000R; Qimaging) and a 20× objective or on a confocal laser scanning microscope (Zeiss LSM-710) equipped with a 20× objective and 63× oil objective. […] For quantification of the AChR clusters number, volume and intensity, image stacks were quantified using the ImageJ (version 1.46m) plugin “3D object counter” (Bolte and Cordeliéres, 2006). […] At least 4 diaphragms or 50 isolated muscle fibers of each genotype were analyzed and quantified. […]
# [6] = E18.5, i.p. E12 to E18.5, vs NaCl-treated MuSKΔCRD
# [7] = P40 TA, compared to NaCl-treated mice
molecule,measurement,setting,value
"[Cl-].[Li+] [LiCl, lithium chloride]",fore limb strength,MuSKΔCRD mice [1],significantly improved
same,hind limb strength,MuSKΔCRD mice [1],significantly improved
same,latencies to fall from the rail grip,MuSKΔCRD mice [1],significantly improved
same,increase in the number of AChR clusters,"[2]; LiCl 2.5 mM, MuSKΔCRD primary myotubes",6 fold
same,β-catenin translocation to subsynaptic nuclei,[3],strong increase
same,reduction of number of bypassing neurites,"MuSKΔCRD embryos; E18.5, compared to NaCl-treated embryos",33%
same,reduction of length of primary nerve branches,"MuSKΔCRD embryos; E18.5, i.p. E12 to E18.5",35%
same,reduction of length of secondary nerve branches,"MuSKΔCRD embryos; E18.5, i.p. E12 to E18.5",28%
same,endplate band width reduction,"MuSKΔCRD embryos; E18.5, i.p. E12 to E18.5, compared to NaCl-treated mutant embryos",23%
same,gain in AChR clusters intensity,MuSKΔCRD embryos; [6],20%
same,gain in AChR clusters number,MuSKΔCRD embryos; [6],103%
same,gain in AChR clusters volume,MuSKΔCRD embryos; [6],186%
same,rescue of pre- and postsynaptic defects,MuSKΔCRD embryos; E18.5 MuSKΔCRD embryos,almost fully rescued both pre- and postsynaptic defects
same,size of NMJ structures,"MuSKΔCRD mice [4]; P40 TA isolated muscle fibers, compared to NaCl-treated MuSKΔCRD",increased in size
same,decrease of number of AChRs fragments per NMJ,MuSKΔCRD mice [4]; [7],44%
same,increase of AChR cluster area,MuSKΔCRD mice [4]; [7],40%
same,increase of synaptophysin area,MuSKΔCRD mice [4]; [7],105%
same,β-catenin translocation to the nucleus,[5]; LiCl-treated compared to Wnt11-treated MuSKΔCRD myotubes,increased β-catenin translocation to the nucleus
"agrin: recombinant Agrin (R&D system), nerve-secreted protein that binds LRP4 and activates MuSK",number of AChR clusters following agrin treatment,"[2]; MuSKΔCRD compared to WT primary myotubes, agrin 0.4 μg/ml",No difference
"Wnt11: member of the Wnt family known to interact with MuSK CRD; recombinant, R&D system (protein, UniProt O96014 25-354, looked up) Protein Wnt-11: IKWLALSKTPSALALNQTQHCKQLEGLVSAQVQLCRSNLELMHTVVHAAREVMKACRRAFADMRWNCSSIELAPNYLLDLERGTRESAFVYALSAAAISHAIARACTSGDLPGCSCGPVPGEPPGPGNRWGGCADNLSYGLLMGAKFSDAPMKVKKTGSQANKLMRLHNSEVGRQALRASLEMKCKCHGVSGSCSIRTCWKGLQELQDVAADLKTRYLSATKVVHRPMGTRKHLVPKDLDIRPVKDSELVYLQSSPDFCMKNEKVGSHGTQDRQCNKTSNGSDSCDLMCCGRGYNPYTDRVVERCHCKYHWCCYVTCRRCERTVERYVCK",decrease of Wnt11-induced number of AChR clusters,"[2]; Wnt11-treated MuSKΔCRD primary myotubes, compared to Wnt11-treated WT, 10 ng/ml",80%
same,increase in the number of AChR clusters,WT primary myotubes,4.5 fold
same,β-catenin translocation to the nucleus,[5]; Wnt11-treated MuSKΔCRD compared to Wnt11-treated WT primary myotubes,strongly reduced
